Results from patent US20260125375A1 (Pfizer Inc., priority 2022, published 2026).

What was measured:
CBL-B (residues 36-427) = molecular target: T1, CBL-B (residues 36-427) (Homo sapiens, UniProt Q13191); experiment: Ligand Displacement Assay (LDA), HTRF competitive binding against BODIPY-labeled fluorescent tracer, CBL-B; conditions: geometric mean of the number of tests, read-out: CBL-B Ki (nM) GMean
T1 construct: Purified CBL-B (residues 36-427) and C-CBL (residues 46-435) proteins from baculovirus-infected insect cells; made in house; host or cells: baculovirus-infected insect cells
Description: (§1) Ligand Displacement Assay (LDA)
(§2) The purpose of the homogeneous time-resolved fluorescence energy transfer (HTRF) ligand displacement assay is to determine whether the compounds of the disclosure are competitive with a BODIPY-labeled compound; “fluorescent tracer” aka [6-cyclopropyl-5-(17-{5-[(3,5-dimethyl-2H-pyrrol-2-ylidene-KN)methyl]-1H-pyrrol-2-yl-κN}-15-oxo-5,8,11-trioxa-2,14-diazaheptadecan-1-yl)-N-(3-{3-[(4-methyl-4H-1,2,4-triazol-3-yl)methyl]oxetan-3-yl}phenyl)pyridine-2-carboxamidato](difluorido)boron and to assess CBL-B binding selectivity over C-CBL. The synthesis of this fluorescent tracer compound is described below.
(§3) Purified CBL-B (residues 36-427) and C-CBL (residues 46-435) proteins from baculovirus-infected insect cells were biotin labeled on their amino-terminal AviTag™ epitopes by the E. coli biotin ligase BirA to bind terbium-labeled streptavidin (SA-Tb). After optimizing the assays and determining KD values for the fluorescent tracer to CBL-B and C-CBL, compounds were tested using three-fold serial dilutions in duplicate from a top concentration of […] with a final DMSO concentration of 2%. […] The Ki (nM) values reported are the geometric means (GMean) of the number of tests conducted.

C-CBL (residues 46-435) = molecular target: T2, C-CBL (residues 46-435) (Homo sapiens, UniProt P22681); experiment: Ligand Displacement Assay (LDA), HTRF competitive binding against BODIPY-labeled fluorescent tracer, C-CBL; conditions: geometric mean of the number of tests, read-out: C-CBL Ki (nM) GMean
T2 construct: Purified CBL-B (residues 36-427) and C-CBL (residues 46-435) proteins from baculovirus-infected insect cells; made in house; host or cells: baculovirus-infected insect cells
T2 sequence (P22681 46-435): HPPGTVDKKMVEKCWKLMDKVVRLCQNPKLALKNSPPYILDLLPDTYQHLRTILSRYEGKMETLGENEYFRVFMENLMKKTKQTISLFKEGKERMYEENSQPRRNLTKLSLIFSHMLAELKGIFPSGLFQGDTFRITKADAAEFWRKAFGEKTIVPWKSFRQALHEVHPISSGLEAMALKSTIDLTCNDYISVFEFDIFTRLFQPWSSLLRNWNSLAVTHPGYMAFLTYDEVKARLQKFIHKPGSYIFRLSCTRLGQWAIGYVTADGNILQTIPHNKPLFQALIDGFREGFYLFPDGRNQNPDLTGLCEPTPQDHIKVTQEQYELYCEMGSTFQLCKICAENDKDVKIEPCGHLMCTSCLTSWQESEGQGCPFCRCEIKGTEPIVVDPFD
Description: as §1, §2, §3

WT CBL-B (36-427) = molecular target: T3, WT CBL-B (36-427) (Homo sapiens, UniProt Q13191); experiment: Surface Plasmon Resonance (SPR) assay, binding affinity and kinetics, CBL-B; conditions: SPR at 10° C., biotinylated WT CBL-B (36-427) on streptavidin chip; geometric mean; read-out: CBL-B SPR Kd (nM) GMean
T3 construct: N-terminal biotinylated WT CBL-B (36-427) and C-CBL (46-435) were captured on a streptavidin (SA) coated sensor chip
Protocol: (§4) Surface Plasmon Resonance (SPR) Assay
(§5) The purpose of the SPR assay is to evaluate the binding affinity and kinetics of the compound of disclosure binding to CBL-B and C-CBL.
(§6) The binding affinity and kinetics of compound binding to CBL-B and C-CBL were measured by Surface Plasmon Resonance (SPR) using either Biacore S200, 8K or 8K+ (Cytiva, Marlborough, MA) instruments. N-terminal biotinylated WT CBL-B (36-427) and C-CBL (46-435) were captured on a streptavidin (SA) coated sensor chip to achieve approximately 5000 to 6000 RUs of surface density. Un-functionalized SA surfaces with no immobilized protein served as reference for binding kinetic analysis. All the samples were prepared in buffer consisting of 10 mM HEPES, 150 mM NaCl, 0.05% Tween-20, 5% glycerol, […], 2% DMSO, pH 7.2. The same buffer was used as the running buffer during the experiments. Compound binding kinetics were measured in either multi-cycle or single-cycle kinetic format.
(§7) Multi-cycle kinetic analysis (MCK): A two-fold, 10-point serial dilution of test compounds was set-up in a 96-well microplate (Greiner; Cat #650101) with a top concentration of either 10 μM or 100 μM. Binding kinetics was measured at 10° C. by injecting serial dilution of compounds onto both reference and CBL immobilized channels at a flow rate of 100 μL/min and association time of 90 seconds. Compound dissociation was monitored for >400 seconds during each cycle. No additional regeneration was used. DMSO calibration curve was obtained before and after compound analysis by injecting 0-4% of DMSO in assay buffer. A suitable compound with known affinity and kinetics was tested once in every experiment as a positive control to assess activity of the captured proteins on the surface.
(§8) Single-cycle kinetic analysis (SCK): A 3-fold, 6-point serial dilution of compounds was set-up in a deep 96-well microplate (Greiner Bio; Cat #780201) with the highest concentration of 1 μM (concentration range: […]). Binding kinetics was measured at 10° C. by injecting serial dilutions of compounds in increasing order onto reference as well as CBL immobilized channels at a flow rate of 100 μL/min and association time of 120 seconds. Compound dissociation was monitored for >5400 seconds. Two buffer blanks were also run in a single-cycle kinetics format before the compound run for double referencing. No additional regeneration was used. DMSO calibration curve was obtained before and after compound analysis by injecting 0-4% of DMSO in the assay buffer. A suitable compound with known affinity and kinetics was tested once in every experiment as a positive control to assess activity of the captured proteins on the surface.

C-CBL (46-435) = molecular target: T4, C-CBL (46-435) (Homo sapiens, UniProt P22681); experiment: Surface Plasmon Resonance (SPR) assay, binding affinity and kinetics, C-CBL; conditions: SPR at 10° C., biotinylated C-CBL (46-435) on streptavidin chip; geometric mean; read-out: C-CBL SPR Kd (nM) GMean
T4 construct: N-terminal biotinylated WT CBL-B (36-427) and C-CBL (46-435) were captured on a streptavidin (SA) coated sensor chip
T4 sequence (P22681 46-435): T2 sequence (P22681 46-435)
Protocol: as §4, §5, §6, §7, §8

SMILES | Ki (CBL-B (residues 36-427)) [nM] | Ki (C-CBL (residues 46-435)) [nM] | Kd (WT CBL-B (36-427)) [nM] | Kd (C-CBL (46-435)) [nM]
CCC(c1cccc(-c2n[nH]c3cnc(C(F)(F)F)cc23)c1)c1nncn1C (single isomer, unassigned) [Example A2, 3-{3-[(1ξ)-1-(4-methyl-4H-1,2,4-triazol-3-yl)propyl]phenyl}-5-(trifluoromethyl)-1H-pyrazolo[3,4-c]pyridine] | 80.4 | 224 | 35.8 | 251
CC(C)NC(C)c1nc(C(F)(F)F)cc2c(-c3cccc(C4(Cc5nncn5C)COC4)c3)n[nH]c12 (single isomer, unassigned) [Example C79, N-{(1ξ)-1-[3-(3-{3-[(4-methyl-4H-1,2,4-triazol-3-yl)methyl]oxetan-3-yl}phenyl)-5-(trifluoromethyl)-1H-pyrazolo[3,4-c]pyridin-7-yl]ethyl}propan-2-amine] | 20.4 | 94.1 | 3.2 | 121
CC(C)NC(C)c1nc(C(F)(F)F)cc2c(-c3cccc(C4(Cc5nncn5C)COC4)c3)n[nH]c12 (single isomer, unassigned) [Example C80, N-{(1ξ)-1-[3-(3-{3-[(4-methyl-4H-1,2,4-triazol-3-yl)methyl]oxetan-3-yl}phenyl)-5-(trifluoromethyl)-1H-pyrazolo[3,4-c]pyridin-7-yl]ethyl}propan-2-amine] | 10.1 | 71.5 | 1.7 | 68.5
CC(N[C@H]1CCOC1)c1nc(C(F)(F)F)cc2c(-c3cccc(C4(Cc5nncn5C)COC4)c3)n[nH]c12 (single isomer, unassigned) [Example C81] | 6.5 | 18.2 | 4.6 | 56.5
CC(N[C@H]1CCOC1)c1nc(C(F)(F)F)cc2c(-c3cccc(C4(Cc5nncn5C)COC4)c3)n[nH]c12 (single isomer, unassigned) [Example C82] | 5.2 | 23.3 | 2.3 | 17
CCNC(C)c1nc(C(F)(F)F)cc2c(-c3cccc(C4(Cc5nncn5C)COC4)c3)n[nH]c12 (single isomer, unassigned) [Example C83, (1ξ)-N-ethyl-1-[3-(3-{3-[(4-methyl-4H-1,2,4-triazol-3-yl)methyl]oxetan-3-yl}phenyl)-5-(trifluoromethyl)-1H-pyrazolo[3,4-c]pyridin-7-yl]ethan-1-amine] | 37.1 | 137 | 12.4 | 161
CCNC(C)c1nc(C(F)(F)F)cc2c(-c3cccc(C4(Cc5nncn5C)COC4)c3)n[nH]c12 (single isomer, unassigned) [Example C84, (1ξ)-N-ethyl-1-[3-(3-{3-[(4-methyl-4H-1,2,4-triazol-3-yl)methyl]oxetan-3-yl}phenyl)-5-(trifluoromethyl)-1H-pyrazolo[3,4-c]pyridin-7-yl]ethan-1-amine] | 25.1 | 144 | 5.8 | 99
CC(N[C@@H]1CCOC1)c1nc(C(F)(F)F)cc2c(-c3cccc(C4(Cc5nncn5C)COC4)c3)n[nH]c12 (single isomer, unassigned) [Example C85] | 15.2 | 92.5 | 2.1 | 82.5
C[C@H](N)c1nc(C(F)(F)F)cc2c(-c3cccc([C@H](c4nncn4C)C4CCCCC4)c3)n[nH]c12 [Example K2, (1S)-1-[3-{3-[(R)-cyclohexyl(4-methyl-4H-1,2,4-triazol-3-yl)methyl]phenyl}-5-(trifluoromethyl)-1H-pyrazolo[3,4-c]pyridin-7-yl]ethan-1-amine] | 48.6 | 287 | – | –
C[C@H](NC(=O)OC(C)(C)C)c1nc(C(F)(F)F)cc2c(-c3cccc(C4(Cc5nncn5C)COC4)c3)n[nH]c12 [Example K8] | 33.4 | 133 | – | –
CC(=O)NC(C)c1nc(C(F)(F)F)cc2c(-c3cccc([C@H](c4nncn4C)C4CCC4)c3)n[nH]c12 (some centres unmarked) [Example M3] | 29 | 214 | – | –
